Read-outs that look alike come from different tables or passages of the source. Numbered stars: 1 amine (or outer) side, 2 acyl side, 3 side chain; on linkers, the order of the positions; unused ones are H or OH. Square brackets hold non-standard residues; d marks the D form. Peptide text beside a SMILES is read from it. * marks the point of attachment. X3 = NC[C@H](OC(=O)C(F)(F)F)[C@H](N[*:1])C(=O)[*:2]; Phe(3,4-(OMe)2) = COc1ccc(C[C@H](N)C(=O)O)cc1OC; Phe(3-CONH2) = NC(=O)c1cccc(C[C@H](N)C(=O)O)c1; X1 = O=C([C@H](Cc1cc(F)c(F)cc1F)N[*:1])[*:2]; Abu(4,4,4-F3) = N[C@@H](CC(F)(F)F)C(=O)O; Phe(4-CN) = N#Cc1ccc(C[C@H](N)C(=O)O)cc1; Phe(3-F) = N[C@@H](Cc1cccc(F)c1)C(=O)O; Phe(3-Me) = Cc1cccc(C[C@H](N)C(=O)O)c1; Dab(3S-OH) = NC[C@H](O)[C@H](N)C(=O)O; Phe(2-F) = N[C@@H](Cc1ccccc1F)C(=O)O; ΔZArg = N=C(N)NCC/C=C(\N)C(=O)O; dOrn = NCCC[C@@H](N)C(=O)O; NH(CH2)4NH2 = NCCCCN*
Assays:
Ec #5 (DSM22315) = experiment: MIC / resistance profile, multidrug-resistant strain; settings: multidrug-resistant E. coli DSM22315
Ec #2 (MIN) = experiment: as above; settings: multidrug-resistant E. coli MIN
Ec #3 (EGB957) = experiment: as above; settings: multidrug-resistant E. coli EGB957
[1] = test system: Acinetobacter baumannii ATCC 19606; experiment: MIC, broth microdilution (CLSI), reference strain; settings: CAMHB
[2] = test system: Staphylococcus aureus ATCC 13709; experiment: MIC, broth microdilution (CLSI), reference strain; settings: CAMHB
Ec #4 (GUE) = experiment: MIC / resistance profile, multidrug-resistant strain; settings: multidrug-resistant E. coli GUE
[3] = test system: Escherichia coli ATCC 25922; experiment: MIC, broth microdilution (CLSI), reference strain; settings: CAMHB
Ec #1 (NCTC13476) = experiment: MIC / resistance profile, multidrug-resistant strain; settings: multidrug-resistant E. coli NCTC13476
[4] = test system: Pseudomonas aeruginosa ATCC 27853; experiment: MIC, broth microdilution (CLSI), reference strain; settings: CAMHB
[5] = target: N-type calcium channels (Cav2.2) (Rattus norvegicus (Rat), UniProt Q02294); experiment: biochemical; format: binding
[6] = value in brackets, rat cerebral cortex, [125I]ω-conotoxin GVIA 0.001 nM, read-out: IC50 Cav2.2
[7] = class symbol, rat cerebral cortex, [125I]ω-conotoxin GVIA 0.001 nM, 30 minutes at room temperature, read-out: IC50 Cav2.2

Row | SMILES | MIC Ec#5 (Ec #5 (DSM22315)) | MIC Ec#2 (Ec #2 (MIN)) | MIC Ec#3 (Ec #3 (EGB957)) | Ab: MIC Acinetobacter baumannii ATCC 19606 [1] | Sa: MIC Staphylococcus aureus ATCC 13709 [2] | MIC Ec#4 (Ec #4 (GUE)) | Ec: MIC Escherichia coli ATCC 25922 [3] | MIC Ec#1 (Ec #1 (NCTC13476)) | Pa: MIC Pseudomonas aeruginosa ATCC 27853 [4] | IC50 [5] [nM] | IC50 [5, 6] [nM] | IC50 [5, 7] [nM]
1 | C[C@H](NC(=O)[C@@H](NC(=O)[C@@H](N)CCCCN)[C@@H](O)CN)C(=O)NCC(=O)N[C@H](CCCN)C(=O)N1CCC[C@H]1C(=O)N[C@@H](Cc1cc(F)c(F)cc1F)C(=O)N[C@@H](CCCCN)C(=O)N/C(=C\CCNC(=N)N)C(=O)O [24.77] (H-K[Dab(3S-OH)]AG[dOrn]P[X1]K[ΔZArg]-OH) | + (≤32 μg/mL) | + (≤32 μg/mL) | ++ (≤8 μg/mL) | − (>32 μg/mL) | ++ (≤8 μg/mL) | + (≤32 μg/mL) | ++ (≤8 μg/mL) | + (≤32 μg/mL) | − (>32 μg/mL) |  |  | 
2 | COc1ccc(C[C@H](NC(=O)[C@@H]2CCCN2C(=O)[C@@H](CCCN)NC(=O)CNC(=O)[C@H](C)NC(=O)[C@@H](NC(=O)[C@@H](N)CCCCN)[C@@H](O)CN)C(=O)N[C@@H](CCCCN)C(=O)N/C(=C\CCNC(=N)N)C(=O)O)cc1OC [24.85] (H-K[Dab(3S-OH)]AG[dOrn]P[Phe(3,4-(OMe)2)]K[ΔZArg]-OH) | + (≤32 μg/mL) | + (≤32 μg/mL) | + (≤32 μg/mL) | − (>32 μg/mL) | + (≤32 μg/mL) | ++ (≤8 μg/mL) | ++ (≤8 μg/mL) | ++ (≤8 μg/mL) | − (>32 μg/mL) | > 300 | 1200 | 
3 | C[C@H](NC(=O)[C@@H](NC(=O)[C@@H](N)CCCCN)[C@@H](O)CN)C(=O)NCC(=O)N[C@H](CCCN)C(=O)N1CCC[C@H]1C(=O)N[C@@H](Cc1cccc(C(N)=O)c1)C(=O)N[C@@H](CCCCN)C(=O)N/C(=C\CCNC(=N)N)C(=O)O [24.90] (H-K[Dab(3S-OH)]AG[dOrn]P[Phe(3-CONH2)]K[ΔZArg]-OH) | ++ (≤8 μg/mL) | ++ (≤8 μg/mL) | ++ (≤8 μg/mL) | − (>32 μg/mL) | ++ (≤8 μg/mL) | ++ (≤8 μg/mL) | ++ (≤8 μg/mL) | ++ (≤8 μg/mL) | − (>32 μg/mL) |  |  | 
4 | C[C@H](NC(=O)[C@@H](NC(=O)[C@@H](N)CCCCN)[C@@H](O)CN)C(=O)NCC(=O)N[C@H](CCCN)C(=O)N1CCC[C@H]1C(=O)N[C@@H](Cc1ccc(C#N)cc1)C(=O)N[C@@H](CCCCN)C(=O)N/C(=C\CCNC(=N)N)C(=O)O [24.100] (H-K[Dab(3S-OH)]AG[dOrn]P[Phe(4-CN)]K[ΔZArg]-OH) | + (≤32 μg/mL) | ++ (≤8 μg/mL) | ++ (≤8 μg/mL) | − (>32 μg/mL) | ++ (≤8 μg/mL) | ++ (≤8 μg/mL) | ++ (≤8 μg/mL) | ++ (≤8 μg/mL) | − (>32 μg/mL) |  |  | 
5 | C[C@H](NC(=O)[C@@H](NC(=O)[C@@H](N)CCCCN)[C@@H](O)CN)C(=O)NCC(=O)N[C@H](CCCN)C(=O)N1CCC[C@H]1C(=O)N[C@@H](CC(F)(F)F)C(=O)N[C@@H](CCCCN)C(=O)N/C(=C\CCNC(=N)N)C(=O)O [24.109] (H-K[Dab(3S-OH)]AG[dOrn]P[Abu(4,4,4-F3)]K[ΔZArg]-OH) | + (≤32 μg/mL) | + (≤32 μg/mL) | + (≤32 μg/mL) | − (>32 μg/mL) | ++ (≤8 μg/mL) | + (≤32 μg/mL) | ++ (≤8 μg/mL) | + (≤32 μg/mL) | − (>32 μg/mL) | > 300 | 1000 | 
6 | C[C@H](NC(=O)[C@@H](NC(=O)[C@@H](N)CCCCN)[C@@H](O)CN)C(=O)NCC(=O)N[C@H](CCCN)C(=O)N1CCC[C@H]1C(=O)N[C@@H](Cc1ccccc1F)C(=O)N[C@@H](CCCCN)C(=O)N/C(=C\CCNC(=N)N)C(=O)O [24.151] (H-K[Dab(3S-OH)]AG[dOrn]P[Phe(2-F)]K[ΔZArg]-OH) | ++ (≤8 μg/mL) | + (≤32 μg/mL) | + (≤32 μg/mL) | − (>32 μg/mL) | ++ (≤8 μg/mL) | + (≤32 μg/mL) | ++ (≤8 μg/mL) | + (≤32 μg/mL) | − (>32 μg/mL) |  |  | > 300
7 | C[C@H](NC(=O)[C@@H](NC(=O)[C@@H](N)CCCCN)[C@@H](O)CN)C(=O)NCC(=O)N[C@H](CCCN)C(=O)N1CCC[C@H]1C(=O)N[C@@H](Cc1cccc(F)c1)C(=O)N[C@@H](CCCCN)C(=O)N/C(=C\CCNC(=N)N)C(=O)O [24.152] (H-K[Dab(3S-OH)]AG[dOrn]P[Phe(3-F)]K[ΔZArg]-OH) | ++ (≤8 μg/mL) | + (≤32 μg/mL) | + (≤32 μg/mL) | − (>32 μg/mL) | ++ (≤8 μg/mL) | + (≤32 μg/mL) | ++ (≤8 μg/mL) | + (≤32 μg/mL) | − (>32 μg/mL) |  |  | > 300
8 | Cc1cccc(C[C@H](NC(=O)[C@@H]2CCCN2C(=O)[C@@H](CCCN)NC(=O)CNC(=O)[C@H](C)NC(=O)[C@@H](NC(=O)[C@@H](N)CCCCN)[C@@H](O)CN)C(=O)N[C@@H](CCCCN)C(=O)N/C(=C\CCNC(=N)N)C(=O)O)c1 [24.153] (H-K[Dab(3S-OH)]AG[dOrn]P[Phe(3-Me)]K[ΔZArg]-OH) | ++ (≤8 μg/mL) | ++ (≤8 μg/mL) | ++ (≤8 μg/mL) | − (>32 μg/mL) | ++ (≤8 μg/mL) | + (≤32 μg/mL) | ++ (≤8 μg/mL) | ++ (≤8 μg/mL) | − (>32 μg/mL) |  |  | > 300
9 | C[C@H](NC(=O)[C@@H](NC(=O)[C@@H](N)CCCCN)[C@@H](O)CN)C(=O)NCC(=O)N[C@H](CCCN)C(=O)N1CCC[C@H]1C(=O)N[C@@H](Cc1c[nH]c2ccccc12)C(=O)N[C@@H](CCCCN)C(=O)N/C(=C\CCNC(=N)N)C(=O)O [24.156] (H-K[Dab(3S-OH)]AG[dOrn]PWK[ΔZArg]-OH) | ++ (≤8 μg/mL) | ++ (≤8 μg/mL) | ++ (≤8 μg/mL) | − (>32 μg/mL) | ++ (≤8 μg/mL) | ++ (≤8 μg/mL) | ++ (≤8 μg/mL) | + (≤32 μg/mL) | − (>32 μg/mL) |  |  | 
10 | N=C(N)NCC/C=C(\NC(=O)[C@H](CCCCN)NC(=O)[C@H](Cc1cnc[nH]1)NC(=O)[C@@H]1CCCN1C(=O)[C@@H](CCCN)NC(=O)CNC(=O)[C@@H](NC(=O)[C@@H](NC(=O)[C@@H](N)CCCCN)[C@@H](O)CN)[C@H](CN)OC(=O)C(F)(F)F)C(=O)N[C@@H](CCCCN)C(=O)NCCCCN [224.1] (H-K[Dab(3S-OH)][X3]G[dOrn]PHK[ΔZArg]K-{NH(CH2)4NH2}) |  |  |  | − (>32 μg/mL) | ++ (≤8 μg/mL) |  | ++ (≤8 μg/mL) |  | + (≤32 μg/mL) |  |  | < 30

— patent US10626144B2, “Peptide derivatives and uses thereof” (Nosopharm, priority 2014, dated 2020)
